Laboratory results published in US20110275703A1, “SUBSTITUTED SPIROKETAL DERIVATIVES AND USE THEREOF AS THERAPEUTIC DRUG FOR DIABETES” (CHUGAI SEIYAKU KABUSHIKI KAISHA, priority 2007, published 2011).
pIC50: −log10 of the molar value. Where two headings read alike, the source gives them in different places.

Key:
human SGLT2 = target: T1, human SGLT2 (Homo sapiens, UniProt P31639); test: Inhibitory activity against methyl-α-D-glucopyranoside uptake, CHO cells stably expressing human SGLT2; assay type: cell-based; conditions: inhibition of SGLT2, Table 2-1; read-out: IC50 value
T1 construct: expressed in transfected cells; host or cells: CHO-K1
T1 sequence (P31639 1-672): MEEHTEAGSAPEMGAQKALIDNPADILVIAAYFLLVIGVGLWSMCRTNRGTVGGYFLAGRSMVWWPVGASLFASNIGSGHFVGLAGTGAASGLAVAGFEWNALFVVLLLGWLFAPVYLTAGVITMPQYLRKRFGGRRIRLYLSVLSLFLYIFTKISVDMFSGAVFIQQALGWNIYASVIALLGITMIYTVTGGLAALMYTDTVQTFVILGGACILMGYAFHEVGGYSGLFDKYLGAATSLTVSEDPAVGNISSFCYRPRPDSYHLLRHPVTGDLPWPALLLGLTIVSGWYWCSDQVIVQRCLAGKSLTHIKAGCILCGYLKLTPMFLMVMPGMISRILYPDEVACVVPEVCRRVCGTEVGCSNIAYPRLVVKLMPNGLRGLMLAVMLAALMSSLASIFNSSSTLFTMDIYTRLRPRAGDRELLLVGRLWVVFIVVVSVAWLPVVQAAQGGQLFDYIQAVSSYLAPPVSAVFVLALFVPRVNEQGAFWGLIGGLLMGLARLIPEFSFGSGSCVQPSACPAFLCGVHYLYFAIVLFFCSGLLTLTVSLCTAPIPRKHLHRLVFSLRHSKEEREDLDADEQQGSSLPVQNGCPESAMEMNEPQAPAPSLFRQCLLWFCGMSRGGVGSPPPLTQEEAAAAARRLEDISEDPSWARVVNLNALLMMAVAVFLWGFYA
From the text: Evaluation of inhibitory activity against methyl-α-D-glucopyranoside uptake of human Na^+-glucose cotransporter (SGLT1 and SGLT2)
2) Construction of Human SGLT2 Expression Vector
Human SGLT2 cDNA was amplified by PCR with a cDNA library derived from human kidney (Clontech) as a template, synthetic DNA primers and KOD+ DNA Polymerase. The amplified cDNA was inserted into pcRII-Topo vector by using a Topo TA Cloning Dual Promoter kit. E. coli competent cells (TPO10) were transformed with the plasmid vector, cultured in LB medium containing ampicillin (50 mg/L) to grow ampicillin-resistant clones. The plasmid vector containing human SGLT2 cDNA was purified from the clone in a standard manner. Human SGLT2 cDNA added restriction enzyme recognition sites (Xho I at 5′-end, Hind III at 3′-end) was amplified by PCR with the plasmid vector as a template, synthetic DNA primers containing an additional restriction enzyme recognition site and KOD+ DNA Polymerase. This amplified cDNA was digested with Xho I and Hind III, and ligated into expression vector pcDNA3.1(−) digested with Xho I and Hind III by using a Rapid DNA Ligation kit. E. coli competent cells (DH5α) were transformed with the ligated expression vector and grown in ampicillin-containing LB medium. Human SGLT2 expression vector was purified from the ampicillin-resistant clone in a standard manner.
3) Establishment of Cell Lines Stably Expressing Human SGLT1 or Human SGLT2
The human SGLT1 expression vector or the human SGLT2 expression vector was digested with the restriction enzyme Pvu I and transfected into CHO-Kl cells with FuGENE (Roche Diagonostics). After the transfection, the cells were cultured at 37° C. in the presence of 5% CO2 for about 3 weeks in DMEM medium (Gibco) containing penicillin (50 U/mL, SIGMA), streptomycin (50 mg/L, SIGMA), geneticin (200 mg/L, Nacalai Tesque, Inc., Japan) and 20% fetal bovine serum to obtain geneticin-resistant clones. Among these clones, clones stably expressing human SGLT1 or human SGLT2 were selected by the evaluating the sodium-dependent uptake activity of sugar (methyl-α-D-glucopyranoside).
4) Evaluation of Inhibitory Activity Against methyl-α-D-glucopyranoside uptake
Cell lines stably expressing human SGLT1 or human SGLT2 CHO were seeded in 96-well culture plates at a density of 30000 to 40000 cells/well and cultured for 4 to 6 days. The medium in these plates was removed and replaced by 150 μL/well pretreatment buffer (i.e., a buffer containing 140 mM choline chloride, 2 mM potassium chloride, 1 mM calcium chloride, 1 mM magnesium chloride, 10 mM 2-[4-(2-hydroxyethyl)-1-piperazinyl]ethanesulfonic acid and tris(hydroxymethyl)aminomethane, pH 7.4), and the plates were incubated at 37° C. for 20 minutes. The pretreatment buffer in the plates was removed, replaced by 50 μL/well fresh pretreatment buffer, and the plates were incubated at 37° C. for 20 minutes. Methyl-α-D-(U—^14C)glucopyranoside (6.3 mL, Amersham Pharmacia Biotech, 200 mCi/L) was added to and mixed with 100 mL buffer (i.e., a buffer containing 140 mM sodium chloride, 2 mM potassium chloride, 1 mM calcium chloride, 1 mM magnesium chloride, 1 mM methyl-α-D-glucopyranoside, 10 mM [4-(2-hydroxyethyl)-1-piperazinyl]ethanesulfonic acid and tris(hydroxymethyl)aminomethane, pH 7.4), which was used as uptake buffer. Test compounds were dissolved into uptake buffer and these test compound solutions were used for evaluating inhibitory activity. Uptake buffer without a test compound was used as a control solution. Moreover, for use in measuring baseline uptake in the absence of sodium, sodium-free solution was prepared in the same manner to contain 140 mM choline chloride instead of sodium chloride. The pretreatment buffer was removed from each well of the plates and replaced by 35 μL/well test compound solutions, control solution or sodium-free solution, and the plates were incubated at 37° C. for 45 minutes. […]

db/db mice = test: Study for glucose lowering effect in db/db mouse; assay type: in vivo; conditions: Mus musculus, 6 hours
Method: Study for Glucose Lowering Effect in dB/dB Mouse
A study for glucose lowering effect was conducted using db/db mice (purchased from Clea Japan, Inc., male, 9 to 11 weeks old), type 2 diabetic model mice. On the day of the study, body weights and blood glucose levels were measured prior to the start of testing. Measurement of the blood glucose levels was performed using a simple blood glucose meter (manufactured by Bayer HealthCare, Dexter-Z II). The mice were allocated to some groups consisting of 5 mice each so that homogeneity of body weights or blood glucose levels among groups would be ensured. Blood collection was carried out by making an incision on the tip of the tail and taking the blood therefrom. On the day of the study, the test compounds were suspended in 0.5% carboxymethylcellulose solution (CMC solution), and the dosing solutions of which concentration was adjusted to either 0.3 mg/10 mL or 3 mg/10 mL were prepared. The dosing solutions were orally administered by gavage for mice in 10 mL/kg. To the control group, only a 0.5% CMC solution was orally administered in 10 mL/kg. Blood was collected prior to or sequentially after administration of test compounds by above method. The blood glucose levels were determined using a hexokinase method (AutoSera S GLU, manufactured by Daiichi Pure Chemicals Co., Ltd.). A percent reduction of blood glucose relative to control group at each time point after administration of test compounds was calculated by the following equation.
Percent reduction of blood glucose (%)={blood glucose level in the control group (mg/dL)-blood glucose level in the test compound group (mg/dL)}/blood glucose level in the control group (mg/dL)×100

[1] = po, 0.3 mg/kg administration, read-out: reduction of blood glucose 6 hours after administration

Row | Compound | pIC50 (human SGLT2) | inhibition in vivo at 0.3 mg/kg (db/db mice; [1]) [%] | inhibition in vivo at 0.3 mg/kg (db/db mice; oral, 0.3 mg/kg, relative to control group, Table 3-1, read-out: Percent reduction of blood glucose (%) 6 hours after administration) [%]
1 | CCOc1ccc(Cc2cc3c(cc2F)CO[C@]32O[C@H](CO)[C@@H](O)[C@H](O)[C@H]2O)cc1 [Example 17, (1S,3′R,4′S,5′S,6′R)-6-[(4-ethoxyphenyl)methyl]-5-fluoro-3′,4′,5′,6′-tetrahydro-6′-(hydroxymethyl)-spiro[isobenzofuran-1(3H),2′-[2H]pyran]-3′,4′,5′-triol] | 8.59 |  | 33
2 | CC(C)c1ccc(Cc2cc3c(cc2F)CO[C@]32O[C@H](CO)[C@@H](O)[C@H](O)[C@H]2O)cc1 [Example 19, (1S,3′R,4′S,5′S,6′R)-5-fluoro-3′,4′,5′,6′-tetrahydro-6′-(hydroxymethyl)-6-[(4-isopropylphenyl)methyl]-spiro[isobenzofuran-1(3H),2′-[2H]pyran]-3′,4′,5′-triol] | 8.70 | ≥ 25 | 
3 | COc1ccc(Cc2cc3c(cc2F)CO[C@]32O[C@H](CO)[C@@H](O)[C@H](O)[C@H]2O)cc1 [Example 20, (1S,3′R,4′S,5′S,6′R)-5-fluoro-3′,4′,5′,6′-tetrahydro-6′-(hydroxymethyl)-6-[(4-methoxyphenyl)methyl]-spiro[isobenzofuran-1(3H),2′-[2H]pyran]-3′,4′,5′-triol] | 8.66 | ≥ 25 | 
4 | CCOc1ccc(Cc2cc3c(cc2C)CO[C@]32O[C@H](CO)[C@@H](O)[C@H](O)[C@H]2O)cc1 [Example 24, (1S,3′R,4′S,5′S,6′R)-6-[(4-ethoxyphenyl)methyl]-3′,4′,5′,6′-tetrahydro-6′-(hydroxymethyl)-5-methyl-spiro[isobenzofuran-1(3H),2′-[2H]pyran]-3′,4′,5′-triol] | 8.74 | ≥ 25 | 
5 | CCCc1ccc(Cc2cc3c(cc2C)CO[C@]32O[C@H](CO)[C@@H](O)[C@H](O)[C@H]2O)cc1 [Example 25, (1S,3′R,4′S,5′S,6′R)-3′,4′,5′,6′-tetrahydro-6′-(hydroxymethyl)-5-methyl-6-[(4-propylphenyl)methyl]-spiro[isobenzofuran-1(3H),2′-[2H]pyran]-3′,4′,5′-triol] | 8.64 | ≥ 25 | 
6 | Cc1cc2c(cc1Cc1ccc(C(F)(F)F)cc1)[C@]1(OC2)O[C@H](CO)[C@@H](O)[C@H](O)[C@H]1O [Example 26, (1S,3′R,4′S,5′S,6′R)-6-[(4-trifluoromethylphenyl)methyl]-3′,4′,5′,6′-tetrahydro-6′-(hydroxymethyl)-5-methyl-spiro[isobenzofuran-1(3H),2′-[2H]pyran]-3′,4′,5′-triol] | 8.55 | ≥ 25 | 
7 | Cc1cc2c(cc1Cc1ccc(OC(F)(F)F)cc1)[C@]1(OC2)O[C@H](CO)[C@@H](O)[C@H](O)[C@H]1O [Example 27, (1S,3′R,4′S,5′S,6′R)-6-[(4-trifluoromethoxyphenyl)methyl]-3′,4′,5′,6′-tetrahydro-6′-(hydroxymethyl)-5-methyl-spiro[isobenzofuran-1(3H),2′-[2H]pyran]-3′,4′,5′-triol] | 8.59 | ≥ 25 | 

Now those with a higher pIC50 (human SGLT2), led by results:

Row | pIC50 (human SGLT2) | Compound | inhibition in vivo at 0.3 mg/kg (db/db mice; [1]) [%] | inhibition in vivo at 0.3 mg/kg (db/db mice; oral, 0.3 mg/kg, relative to control group, Table 3-1, read-out: Percent reduction of blood glucose (%) 6 hours after administration) [%]
8 | 8.77 | Cc1ccc(Cc2cc3c(cc2F)CO[C@]32O[C@H](CO)[C@@H](O)[C@H](O)[C@H]2O)cc1 [Example 18, (1S,3′R,4′S,5′S,6′R)-5-fluoro-3′,4′,5′,6′-tetrahydro-6′-(hydroxymethyl)-6-[(4-methylphenyl)methyl]-spiro[isobenzofuran-1(3H),2′-[2H]pyran]-3′,4′,5′-triol] | ≥ 25 | 
9 | 8.82 | CCc1ccc(Cc2cc3c(cc2F)CO[C@]32O[C@H](CO)[C@@H](O)[C@H](O)[C@H]2O)cc1 [Example 16, (1S,3′R,4′S,5′S,6′R)-6-[(4-ethylphenyl)methyl]-5-fluoro-3′,4′,5′,6′-tetrahydro-6′-(hydroxymethyl)-spiro[isobenzofuran-1(3H),2′-[2H]pyran]-3′,4′,5′-triol] | ≥ 25 | 
10 | 8.82 | COc1ccc(Cc2cc3c(cc2C)CO[C@]32O[C@H](CO)[C@@H](O)[C@H](O)[C@H]2O)cc1 [Example 23, (1S,3′R,4′S,5′S,6′R)-3′,4′,5′,6′-tetrahydro-6′-(hydroxymethyl)-6-[(4-methoxyphenyl)methyl]-5-methyl-spiro[isobenzofuran-1(3H),2′-[2H]pyran]-3′,4′,5′-triol] | ≥ 25 | 
11 | 8.89 | OC[C@H]1O[C@]2(OCc3cc(Cl)c(Cc4cccs4)cc32)[C@H](O)[C@@H](O)[C@@H]1O [Example 30, (1S,3′R,4′S,5′S,6′R)-5-chloro-3′,4′,5′,6′-tetrahydro-6′-(hydroxymethyl)-6-[(thiophen-2-yl)methyl]-spiro[isobenzofuran-1(3H),2′-[2H]pyran]-3′,4′,5′-triol] | ≥ 25 | 
12 | 8.96 | Cc1cc2c(cc1Cc1ccc(CCF)cc1)[C@]1(OC2)O[C@H](CO)[C@@H](O)[C@H](O)[C@H]1O [Example 22, (1S,3′R,4′S,5′S,6′R)-6-[(4-(2-fluoroethyl)phenyl)methyl]-5-methyl-3′,4′,5′,6′-tetrahydro-6′-(hydroxymethyl)-spiro[isobenzofuran-1(3H),2′-[2H]pyran]-3′,4′,5′-triol] | ≥ 25 | 
